The target of assay [1] is T1, Chloride anion exchanger (Homo sapiens) (UniProt P40879).
T1 sequence (whole entry): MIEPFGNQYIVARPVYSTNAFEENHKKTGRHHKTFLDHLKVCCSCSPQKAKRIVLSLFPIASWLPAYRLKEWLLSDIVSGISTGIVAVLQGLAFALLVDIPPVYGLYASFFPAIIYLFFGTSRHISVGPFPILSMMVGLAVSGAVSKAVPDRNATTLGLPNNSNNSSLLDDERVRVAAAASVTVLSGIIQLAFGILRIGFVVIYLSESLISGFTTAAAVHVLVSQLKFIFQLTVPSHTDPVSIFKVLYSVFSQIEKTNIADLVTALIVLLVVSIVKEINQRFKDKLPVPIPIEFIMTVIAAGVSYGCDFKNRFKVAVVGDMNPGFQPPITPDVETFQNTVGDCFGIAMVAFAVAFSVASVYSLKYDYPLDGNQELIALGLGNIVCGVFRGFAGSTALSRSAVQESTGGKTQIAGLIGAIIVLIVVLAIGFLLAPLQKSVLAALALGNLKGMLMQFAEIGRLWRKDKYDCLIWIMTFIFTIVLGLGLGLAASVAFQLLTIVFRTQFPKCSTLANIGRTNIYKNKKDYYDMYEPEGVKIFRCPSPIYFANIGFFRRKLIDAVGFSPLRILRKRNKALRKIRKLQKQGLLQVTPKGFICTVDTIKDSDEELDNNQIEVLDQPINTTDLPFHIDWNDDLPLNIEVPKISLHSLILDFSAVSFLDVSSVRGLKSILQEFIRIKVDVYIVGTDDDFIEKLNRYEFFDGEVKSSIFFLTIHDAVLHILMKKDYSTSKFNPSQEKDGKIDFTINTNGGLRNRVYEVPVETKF
Briefly: Inhibition of SLC26A3 (unknown origin) expressed in rat FRT cells coexpressing YFP halide-sensing protein assessed as iodide-chloride exchange at 25 uM incubated for 2 sec by fluorescence quenching analysis. It counts as cell-based.

For assay [2], the target named is T2, Solute carrier family 26 member 9 (Homo sapiens) (UniProt Q7LBE3).
T2 sequence (whole entry): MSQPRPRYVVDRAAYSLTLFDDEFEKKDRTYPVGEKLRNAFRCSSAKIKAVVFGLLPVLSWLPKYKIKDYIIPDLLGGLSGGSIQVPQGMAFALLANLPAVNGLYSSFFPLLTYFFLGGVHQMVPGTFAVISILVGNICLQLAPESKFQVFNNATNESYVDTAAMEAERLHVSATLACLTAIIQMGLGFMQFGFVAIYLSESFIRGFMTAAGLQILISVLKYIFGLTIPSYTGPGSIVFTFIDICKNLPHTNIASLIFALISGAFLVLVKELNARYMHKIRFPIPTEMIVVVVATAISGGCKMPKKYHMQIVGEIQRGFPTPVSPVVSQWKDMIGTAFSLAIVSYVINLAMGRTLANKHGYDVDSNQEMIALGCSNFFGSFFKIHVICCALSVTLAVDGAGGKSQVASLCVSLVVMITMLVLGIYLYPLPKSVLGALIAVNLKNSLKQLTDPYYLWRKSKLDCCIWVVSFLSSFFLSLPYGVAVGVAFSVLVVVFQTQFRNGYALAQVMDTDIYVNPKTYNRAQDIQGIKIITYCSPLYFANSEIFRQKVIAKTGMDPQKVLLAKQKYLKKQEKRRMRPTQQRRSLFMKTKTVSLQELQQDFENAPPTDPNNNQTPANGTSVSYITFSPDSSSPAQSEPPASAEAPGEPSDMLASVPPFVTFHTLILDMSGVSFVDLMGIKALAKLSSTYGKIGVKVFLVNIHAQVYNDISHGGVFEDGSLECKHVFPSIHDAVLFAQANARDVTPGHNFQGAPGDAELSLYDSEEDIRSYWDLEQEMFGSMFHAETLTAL
Put plainly: Inhibition of SLC26A9 (unknown origin) expressed in rat FRT cells coexpressing YFP halide-sensing protein assessed as iodide-chloride exchange at 25 uM incubated for 2 sec by fluorescence quenching analysis. It counts as cell-based.

The target of assay [3] is Cystic fibrosis transmembrane conductance regulator (Homo sapiens) (UniProt P13569). Put plainly: Inhibition of CFTR (unknown origin).
The target in assay [4] is Solute carrier family 26 member 6 (Mus musculus) (UniProt Q8CIW6). Put plainly: Inhibition of SLC26A6 (unknown origin) expressed in rat FRT cells coexpressing YFP halide-sensing protein assessed as iodide-chloride exchange incubated for 2 sec by fluorescence quenching analysis.

The source made the active and inactive calls. No cut-off for these calls is given here.

What is called IC50 is the midpoint of a concentration-inhibition curve.

Sequence of Cystic fibrosis transmembrane conductance regulator (Homo sapiens) (P13569 whole entry, looked up): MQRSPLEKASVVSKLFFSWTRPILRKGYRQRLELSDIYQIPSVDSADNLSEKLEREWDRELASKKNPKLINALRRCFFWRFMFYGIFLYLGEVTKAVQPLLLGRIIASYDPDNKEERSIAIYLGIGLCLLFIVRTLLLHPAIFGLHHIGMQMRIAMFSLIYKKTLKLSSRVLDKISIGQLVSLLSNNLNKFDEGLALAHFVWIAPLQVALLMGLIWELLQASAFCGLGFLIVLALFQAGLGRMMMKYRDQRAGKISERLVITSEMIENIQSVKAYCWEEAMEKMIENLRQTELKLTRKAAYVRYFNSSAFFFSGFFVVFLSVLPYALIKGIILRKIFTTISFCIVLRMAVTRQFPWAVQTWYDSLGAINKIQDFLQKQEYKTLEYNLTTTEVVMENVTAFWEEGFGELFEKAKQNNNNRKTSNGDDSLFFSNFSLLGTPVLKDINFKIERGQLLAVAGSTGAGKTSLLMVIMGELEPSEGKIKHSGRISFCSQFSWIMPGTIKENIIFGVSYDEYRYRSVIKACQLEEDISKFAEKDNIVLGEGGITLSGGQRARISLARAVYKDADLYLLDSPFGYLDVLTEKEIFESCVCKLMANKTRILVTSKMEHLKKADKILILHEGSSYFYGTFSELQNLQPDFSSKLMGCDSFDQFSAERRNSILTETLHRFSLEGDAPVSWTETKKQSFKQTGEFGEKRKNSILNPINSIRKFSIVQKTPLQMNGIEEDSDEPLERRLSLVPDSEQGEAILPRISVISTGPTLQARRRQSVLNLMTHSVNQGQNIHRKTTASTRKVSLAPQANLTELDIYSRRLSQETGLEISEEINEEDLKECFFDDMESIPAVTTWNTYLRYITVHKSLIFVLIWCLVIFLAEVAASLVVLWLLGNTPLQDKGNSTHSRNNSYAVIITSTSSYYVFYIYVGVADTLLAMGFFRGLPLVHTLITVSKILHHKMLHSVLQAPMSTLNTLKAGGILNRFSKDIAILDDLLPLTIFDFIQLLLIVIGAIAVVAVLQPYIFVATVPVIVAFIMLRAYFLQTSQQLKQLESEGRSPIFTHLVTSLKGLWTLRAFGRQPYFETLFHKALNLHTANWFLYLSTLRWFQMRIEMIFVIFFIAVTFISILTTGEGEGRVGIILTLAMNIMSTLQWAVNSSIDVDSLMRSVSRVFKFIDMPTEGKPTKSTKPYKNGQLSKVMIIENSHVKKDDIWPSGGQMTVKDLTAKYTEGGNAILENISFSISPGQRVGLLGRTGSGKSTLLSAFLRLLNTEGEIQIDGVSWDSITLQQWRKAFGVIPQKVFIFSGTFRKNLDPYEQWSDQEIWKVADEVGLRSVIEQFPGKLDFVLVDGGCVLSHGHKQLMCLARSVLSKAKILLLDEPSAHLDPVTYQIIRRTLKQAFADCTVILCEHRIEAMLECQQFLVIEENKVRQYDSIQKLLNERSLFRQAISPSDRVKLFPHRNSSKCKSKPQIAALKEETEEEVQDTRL
Sequence of Solute carrier family 26 member 6 (Mus musculus) (Q8CIW6 whole entry, looked up): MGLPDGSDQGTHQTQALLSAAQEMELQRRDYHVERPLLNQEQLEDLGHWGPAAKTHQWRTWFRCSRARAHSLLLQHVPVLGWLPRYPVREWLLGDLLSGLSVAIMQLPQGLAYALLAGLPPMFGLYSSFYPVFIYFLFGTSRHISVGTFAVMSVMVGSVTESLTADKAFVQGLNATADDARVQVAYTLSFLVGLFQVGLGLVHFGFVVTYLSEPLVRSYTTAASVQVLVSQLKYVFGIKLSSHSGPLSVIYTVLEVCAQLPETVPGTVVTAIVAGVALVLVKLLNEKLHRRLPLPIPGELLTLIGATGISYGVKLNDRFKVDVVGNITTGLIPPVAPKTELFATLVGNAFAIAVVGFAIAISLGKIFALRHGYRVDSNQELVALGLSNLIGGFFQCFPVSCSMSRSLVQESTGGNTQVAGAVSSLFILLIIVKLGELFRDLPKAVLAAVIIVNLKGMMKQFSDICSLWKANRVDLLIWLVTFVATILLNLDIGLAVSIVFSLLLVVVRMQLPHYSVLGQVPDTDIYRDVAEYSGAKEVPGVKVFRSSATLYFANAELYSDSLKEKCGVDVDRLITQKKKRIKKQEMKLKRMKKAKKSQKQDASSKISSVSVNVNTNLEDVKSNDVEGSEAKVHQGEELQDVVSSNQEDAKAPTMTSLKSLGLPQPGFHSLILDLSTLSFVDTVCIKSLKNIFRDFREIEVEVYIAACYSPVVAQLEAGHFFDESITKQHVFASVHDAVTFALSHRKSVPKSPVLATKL

Take `CCOC(=O)c1nc(N(C)Cc2ccccc2)c2c(C)noc2n1`: the inhibition entry in assay [1], in assay [2] and in assay [3] was “inactive” each time. Moreover, the concentration for half-maximal inhibition (IC50) in assay [4] stood at 1 µM.

For the origin of these results see ChEMBL document CHEMBL5329211, “Selective isoxazolopyrimidine PAT1 (SLC26A6) inhibitors for therapy of intestinal disorders” (RSC Med Chem, 2023).
